Each structure is given as a SMILES string.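 A five-concentration, 48-hour dose response in 96-well plates underlies each endpoint, interpolated linearly between surrounding concentrations. GI50 marks 50% less growth. TGI: total growth inhibition.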

The values that follow come from PubChem BioAssay (NCI).

Test systems include 786-0 renal; HCT-15 colon; HL-60(TB) leukemia; MALME-3M melanoma; OVCAR-4 ovarian; OVCAR-8 ovarian; SF-295 CNS; SK-MEL-5 melanoma; SR leukemia; U251 CNS.
Test in all cases: NCI tumour cell line growth inhibition, 48 h

For `CN(C)c1ccc(/C=N\N2C(=O)c3ccccc3C2=O)cc1`, the TGI in the experiment on 786-0 renal, in the experiment on HCT-15 colon, in the experiment on HL-60(TB) leukemia, with MALME-3M melanoma, in the experiment with OVCAR-4 ovarian and with OVCAR-8 ovarian was over 100 µM in each case. In addition, the TGI in the experiment with SF-295 CNS, in the experiment with SK-MEL-5 melanoma and in the experiment on SR leukemia was over 100 µM throughout.
For the molecule `CCC1CCc2nc3sc(C(=O)Nc4ccccc4C)c(N)c3cc2C1` (centres undefined), the GI50 was 0.371 µM in the experiment with 786-0 renal; 0.339 µM in the experiment on HCT-15 colon; 0.214 µM in the experiment on HL-60(TB) leukemia; 0.694 µM in the experiment on OVCAR-4 ovarian; over 100 µM in the experiment on OVCAR-8 ovarian; 0.354 µM in the experiment with SF-295 CNS. The GI50 in the experiment with SK-MEL-5 melanoma is 0.301 µM; with SR leukemia, 0.196 µM; in the experiment on U251 CNS it was 0.648 µM. In addition, the TGI is over 100 µM with 786-0 renal; over 100 µM in the experiment with HCT-15 colon; 0.617 µM in the experiment with HL-60(TB) leukemia; over 100 µM with OVCAR-4 ovarian; over 100 µM in the experiment on OVCAR-8 ovarian; over 100 µM in the experiment on SF-295 CNS. The results for the TGI in the experiment with SK-MEL-5 melanoma, in the experiment with SR leukemia and in the experiment on U251 CNS were over 100 µM, 14.6 µM and over 100 µM, respectively.
Consider `Cc1nc2n(c(=O)c1CCN1CCC(c3noc4cc(F)ccc34)CC1)CCCC2`, for which the GI50 in the experiment with 786-0 renal, in the experiment with HCT-15 colon, in the experiment on HL-60(TB) leukemia, in the experiment with MALME-3M melanoma, with OVCAR-4 ovarian and in the experiment on OVCAR-8 ovarian was over 50 µM throughout. Also, the GI50 with SF-295 CNS, in the experiment on SR leukemia and in the experiment with U251 CNS was over 50 µM each time. For the same molecule, the TGI in the experiment on 786-0 renal, in the experiment on HCT-15 colon, in the experiment with HL-60(TB) leukemia, in the experiment on MALME-3M melanoma, in the experiment with OVCAR-4 ovarian and with OVCAR-8 ovarian was over 50 µM throughout. In addition, the TGI in the experiment with SF-295 CNS, in the experiment on SR leukemia and with U251 CNS was over 50 µM each time.
Consider `N#CC1(C=O)c2ccccc2C=CN1C(=O)c1ccccc1` (centres undefined), for which the TGI was over 100 µM in the experiment on 786-0 renal; over 100 µM in the experiment with HCT-15 colon; 45.9 µM with HL-60(TB) leukemia; over 100 µM in the experiment with MALME-3M melanoma; over 100 µM with OVCAR-4 ovarian; over 100 µM in the experiment with OVCAR-8 ovarian. The TGI was 47.3 µM in the experiment with SK-MEL-5 melanoma, 66.5 µM in the experiment with SR leukemia and over 100 µM in the experiment on U251 CNS.
Regarding `Cc1nc(Nc2ccc([N+](=O)[O-])cc2)sc1C(/C=C/c1ccc(N(C)C)cc1)=N/NC(=O)c1ccccc1`, the TGI in the experiment on 786-0 renal, in the experiment with HCT-15 colon, in the experiment with HL-60(TB) leukemia, in the experiment with MALME-3M melanoma, in the experiment on OVCAR-4 ovarian and in the experiment with OVCAR-8 ovarian was over 100 µM throughout. In addition, the TGI in the experiment with SF-295 CNS, in the experiment on SR leukemia and in the experiment on U251 CNS was over 100 µM each time.
As for `O=C(NNC(=O)c1cc(/C=C/c2cccc([N+](=O)[O-])c2)[nH]c(=S)n1)Nc1ccc(Cl)cc1`, the TGI in the experiment on 786-0 renal was over 100 µM; in the experiment on HCT-15 colon, over 100 µM; with HL-60(TB) leukemia, 84.1 µM; in the experiment on MALME-3M melanoma, over 100 µM; in the experiment with OVCAR-8 ovarian, over 100 µM; in the experiment with SF-295 CNS it was over 100 µM. The TGI is over 100 µM with SK-MEL-5 melanoma, 9.76 µM in the experiment on SR leukemia and 30.2 µM in the experiment with U251 CNS.
Take `COc1ccc(-c2c(-c3cc(OC)c4c(c3)OCO4)noc2N)cc1`: the GI50 in the experiment on 786-0 renal is 0.0845 µM; in the experiment on HCT-15 colon, 0.0431 µM; in the experiment on HL-60(TB) leukemia it was 0.0351 µM; in the experiment on OVCAR-4 ovarian, 0.204 µM; with OVCAR-8 ovarian, 0.0654 µM; in the experiment with SF-295 CNS, 0.0197 µM. For the same molecule, the GI50 in the experiment with SK-MEL-5 melanoma was 0.0288 µM; in the experiment with SR leukemia it was under 0.0104 µM; in the experiment on U251 CNS, 0.0382 µM. The TGI was 24.1 µM in the experiment with 786-0 renal; over 100 µM in the experiment with HCT-15 colon; 13.7 µM in the experiment with HL-60(TB) leukemia; over 56.4 µM in the experiment on OVCAR-4 ovarian; 22.8 µM in the experiment on OVCAR-8 ovarian; 23.8 µM in the experiment on SF-295 CNS. Moreover, the figures for the TGI with SK-MEL-5 melanoma, with SR leukemia and with U251 CNS were 0.485 µM, over 36.6 µM and 42.7 µM, respectively.
Take `COC12CC(=O)C(C(C)=O)=C(O)C1(C)c1c(OC(C)=O)c(C)c(O)c(C(C)=O)c1O2` (centres undefined): the TGI is over 100 µM with 786-0 renal; over 100 µM with HCT-15 colon; 42.5 µM in the experiment on HL-60(TB) leukemia; 60.2 µM with MALME-3M melanoma; over 100 µM in the experiment on OVCAR-4 ovarian; over 100 µM with OVCAR-8 ovarian. Further, the TGI with SF-295 CNS, with SR leukemia and in the experiment on U251 CNS was over 100 µM in each case.
For the molecule `CNC1C(O)C(OC2C(N)CC(N)C(OC3OC(C(C)O)C(O)C(O)C3N)C2O)OCC1(C)O` (centres undefined), the TGI with 786-0 renal, in the experiment on HCT-15 colon, in the experiment on HL-60(TB) leukemia, with OVCAR-4 ovarian, with OVCAR-8 ovarian and in the experiment on SF-295 CNS was over 100 µM each time. The TGI with SK-MEL-5 melanoma, with SR leukemia and in the experiment on U251 CNS was over 100 µM throughout.
For the molecule `CCCCCCCCCCCCN(O)C(=O)c1ccccc1`, the TGI was 49.2 µM in the experiment with 786-0 renal; over 100 µM with HCT-15 colon; 54.8 µM in the experiment with HL-60(TB) leukemia; 60.7 µM in the experiment on MALME-3M melanoma; 74.3 µM in the experiment with OVCAR-8 ovarian; over 100 µM in the experiment with SF-295 CNS. Also, the figures for the TGI in the experiment on SR leukemia and in the experiment on U251 CNS were over 100 µM and 29.8 µM, respectively.
With `CCOC(=O)Nc1ccc(-c2nc(-c3cccc(OC)c3)c(-c3ccnc(Br)c3)[nH]2)cc1`, the GI50 in the experiment with 786-0 renal was 2.16 µM; in the experiment on HCT-15 colon, 1.68 µM; with HL-60(TB) leukemia, 2.34 µM; in the experiment on MALME-3M melanoma it was 1.98 µM; in the experiment with OVCAR-8 ovarian it was 2.98 µM; in the experiment on SF-295 CNS, 0.416 µM. Besides, the GI50 in the experiment with SK-MEL-5 melanoma is 1.83 µM; with SR leukemia, 2.88 µM; in the experiment with U251 CNS, 2.44 µM. Moreover, the TGI with 786-0 renal is over 100 µM; in the experiment with HCT-15 colon it was 5.45 µM; in the experiment with HL-60(TB) leukemia, 7.41 µM; with MALME-3M melanoma, 5.73 µM; in the experiment on OVCAR-8 ovarian it was over 100 µM; in the experiment with SF-295 CNS, 2.93 µM. For the same molecule, the TGI in the experiment with SK-MEL-5 melanoma is 3.43 µM; in the experiment with SR leukemia it was over 100 µM; with U251 CNS, over 100 µM.
